Measurements: PMC9268591, “Anti-Inflammatory, Analgesic and Antioxidant Potential of New (2S,3S)-2-(4-isopropylbenzyl)-2-methyl-4-nitro-3-phenylbutanals and Their Corresponding Carboxylic Acids through In Vitro, In Silico and In Vivo Studies” (Molecules, 2022)
pIC50: −log10 of the molar value.

Tests used:
[1] = DPPH free radical scavenging assay
Experimental: The protocol of Brand-Williams et al. was used for the DPPH assay with some modifications. DPPH (4 mg) was dissolved in methanol (100 mL) to obtain a mixture of […] 1,1-diphenyl,2-picrylhydrazyl (DPPH). The stock solution of the various synthesized compounds was prepared in methanol with 1 mg/mL concentration. This stock solution was used to prepare different concentrations of test samples ranging within 1000–62.5 μg/mL. The 0.1 mL of each concentration (1000–62.5 μg/mL) was combined with the DPPH (3 mL) solution in methanol. The solution was kept at 23 °C for 15 min incubation, followed by the absorbance measurement deliberated at 517 nm. Gallic acid was used as a standard drug in this assay. The percentage DPPH radical scavenging potential was measured via the formula [44]: % radical scavenging potential=CAbs.−SAbs./CAbs.×100 where CAbs. is the absorbance of the control, and SAbs is the absorbance of test samples/standard.

[2] = ABTS free radical scavenging assay
Experimental: The total antioxidant activity of test compound (HBH) was estimated using the 2, 2-azinobis [3-ethylbenzthiazoline]-6-sulfonic acid (ABTS). The 100 mL of ABTS solution (7 mM) was added to 100 mL of potassium persulfate ([…], 2.45 mM) solution, mixed, and kept in the dark for 12 h to generate free radicals. […]. Gallic acid at 2 mg/2 mL of water was used as a standard drug. Likewise, for the test sample, different concentrations (1000–62.5 μg/mL) of the […] were made for absorbance measurements at the same wavelength. The 300 μL of each test solution was added to 3 mL of ABTS solution to measure the absorbance at 745 nm through a UV-visible spectrophotometer. A similar volume of each standard solution was taken to determine the absorbance at the same wavelength. The ABTS percent scavenging potential was calculated via the above formula [45].

| pIC50 [1] | pIC50 [2] | melting point [°C] | SMILES |
| --- | --- | --- | --- |
| 5.04 | 5.49 | – | O=C(O)c1cc(O)c(O)c(O)c1 [Gallic acid, reference compound] |
| – | – | 259 to 261 | CC(C)c1ccc(C[C@](C)(C(=O)O)[C@@H](C[N+](=O)[O-])c2ccc(Cl)cc2)cc1 [FM8] |
| – | – | 233 to 235 | Cc1ccc([C@H](C[N+](=O)[O-])[C@](C)(Cc2ccc(C(C)C)cc2)C(=O)O)cc1 [FM9] |
| – | – | 211 to 213 | COc1ccccc1[C@H](C[N+](=O)[O-])[C@](C)(Cc1ccc(C(C)C)cc1)C(=O)O [FM11] |
